Entries after “also recorded” stand apart in the source; their conditions may differ.
How the values were obtained:
NIH 3T3 cells [1] = assay: Circadian gene expression in NIH 3T3 cells transfected with mBmal1::luc reporter; format: cell-based, mouse; conditions: for effect on circadian period: 3T3 fibroblasts; for effect on circadian gene expression / output: mBmal1::luc reporter
Description: Inhibition of the Gsα-binding site of AC caused a dose-dependent, reversible, dampening of circadian gene expression from Per1::luciferase organotypic SCN slice cultures, monitored by photomultiplier tubes. To determine the generality of this effect, we examined 3-T3 fibroblast cells. Abrogation of the endogenous oscillation of cAMP concentration stopped circadian gene expression as reported by Bmal1::luciferase reporter constructs P-site AC inhibition prolonged fibroblast period from ca. 21 hours to ca. 30 hours.
(§1) Recordings of luciferase activity from organotypic slices of SCN or peripheral tissues were made from 5-7 day old pups from PER2::LUC and, Per1::LUC mice using either photomultiplier assemblies for whole tissue emission or CCD camera for single SCN cell imaging (Hamamatsu Photonics Ltd, U.K.) as described May Wood et al 2006 Curr. Biol. Vol. 16 pp 599-605. cAMP-ELISA kit was purchased from R&D systems (Wiesbaden, Germany). NIH 3T3 cells were cultured as described (Kume et al 1999 Cell Vol 98 pp 193-205) and transfected using Genejuice (Novagen, San Diego, Calif.). All drugs were purchased from Sigma-Aldrich (Poole, UK) except PKA/Epac-active cAMP analogues (Axxora; Grünberg; Germany) and KT5720 (Calbiochem, Nottingbam, UK). Drugs were solubilized in medium or dimethylsulfoxide (DMSO) to make stock solutions 50-1000× the working solutions. [DMSO] was never greater than 0.4%. RNA-interference against Epac1 and Epac 2 used pre-validated sequences as instructed (Validated Stealth RNAi, Invitrogen, CA). Western Blots were performed as Reddy et al (2006 Curr. Biol. Vol 16 oo 1107-15). Behavioural rhythms, recorded by running wheel and passive infra-red movement detectors, were analysed in Clocklab (Actimetrics, Evanston Ill.). Central cannulae directed stereotaxically at the SCN and sub-cutaneous minipumps (Alzet® model 1002 pump and brain infusion kit II) for drug infusion were fitted as instructed (Durect Corp. Cupertino, Calif.).
(§2) Statistical analysis was performed using Prism GraphPad™ and Statview™. Periods were calculated over ≧3 days recoding For comparative purposes, transcriptional amplitude from PMT recordings was calculated as 100× (post-treatment emission peak-trough/pre-treatment peak-trough). In all cases error bars indicate SEM about the mean where n≧3.

circadian clock = conditions: administered in the evening; cited from earlier work
organotypic SCN slices = assay: Bioluminescence recording of circadian gene expression in organotypic SCN slices (mPer1::luc / PER2::LUC); format: cell-based, mice; conditions: for effect on circadian period / effect on circadian amplitude / gene expression: wild-type mPer1::luc / PER2::LUC SCN slices; for rescue of circadian gene expression in MDL-treated SCN slices: PER2-LUC SCN slices pre-treated with MDL (2.5 μM), Epac agonist 100 μM; for synchrony of SCN neurons (CCD imaging): 1.0 μM MDL for over 7 days, PER2::LUC slice
Experimental: (§3) Per1::luciferase and; Per2-luc transgenic mice were used. For organotypic slice culture, brains were removed from pups 5-10 days old and sectioned at 300 um with a McIlwain “Tissue Chopper.” Slices were sorted and trimmed to contain principally SCN tissue and placed onto a Millipore membrane insert (PICMORG) for culture at 37° C. in 5% CO2 as described previously (Gainer et al, 1998).
as §1, with “All drugs were purchased from Sigma-Aldrich (Poole, UK) except PKA/Epac-active cAMP analogues (Axxora; Grünberg; Germany) and KT5720 (Calbiochem, Nottingbam, UK).” left out
as §2

Water solubility = format: physicochemical
circadian period = conditions: 0.3% lithium; 25% D2O; cited from earlier work
Clock mutant SCN = assay: Circadian period in Clock heterozygous and homozygous mutant SCN; format: cell-based, mice
Experimental: as §1, with “Central cannulae directed stereotaxically at the SCN and sub-cutaneous minipumps (Alzet® model 1002 pump and brain infusion kit II) for drug infusion were fitted as instructed (Durect Corp. Cupertino, Calif.).” left out

peripheral tissues = assay: Circadian recording in organotypic cultures of peripheral tissues from mPER2::LUC mice; format: cell-based
Experimental: as §1, with “RNA-interference against Epac1 and Epac 2 used pre-validated sequences as instructed (Validated Stealth RNAi, Invitrogen, CA). Western Blots were performed as Reddy et al (2006 Curr. Biol. Vol 16 oo 1107-15).” left out, “Central cannulae directed stereotaxically at the SCN and sub-cutaneous minipumps (Alzet® model 1002 pump and brain infusion kit II) for drug infusion were fitted as instructed (Durect Corp. Cupertino, Calif.).” left out
Statistical analysis was performed using Prism GraphPad™ and Statview™. Periods were calculated over ≧3 days recoding For comparative purposes, transcriptional amplitude from PMT recordings was calculated as 100× (post-treatment emission peak-trough/pre-treatment peak-trough). […]

cAMP levels = assay: cAMP ELISA in synchronised NIH 3T3 fibroblast cultures; format: cell-based, mouse; conditions: for cAMP levels: MDL at highest doses used
Experimental: as §3, §1

SCN = assay: Free-running period of wheel-running behaviour, THFA infused to SCN by minipump and central cannula; format: in vivo; conditions: chronic central THFA vs vehicle; continuous dim red light; nine mice
Experimental: (a) Representative double-plotted, actograms of (left) vehicle- and (right) THFA-treated mice entrained to a photoschedule of 12 hours light (shaded) and 12 hours dark and fitted with osmotic mini-pump and central cannula directed at SCN (asterisk) Mice were then released into continuous dim-red light and free-running period determined Note longer period in THFA-treated mice.
as §1, with “[DMSO] was never greater than 0.4%. RNA-interference against Epac1 and Epac 2 used pre-validated sequences as instructed (Validated Stealth RNAi, Invitrogen, CA). Western Blots were performed as Reddy et al (2006 Curr. Biol. Vol 16 oo 1107-15).” left out, “Central cannulae directed stereotaxically at the SCN and sub-cutaneous minipumps (Alzet® model 1002 pump and brain infusion kit II) for drug infusion were fitted as instructed (Durect Corp. Cupertino, Calif.).” left out

intact human neutrophils = conditions: Simchowitz et al 1983; cited from earlier work
JNK phosphorylation = assay: Western blot of 3T3 cell extracts (JNK and CREB phosphorylation); format: cell-based, mouse; conditions: for CREB phosphorylation (pCREB): 3T3 cells given MDL, Epac agonist; for JNK phosphorylation (pJNK): 3T3 cells, MDL 5.0 μm 40 hours, Epac agonist 100 μM, 2 hours
Experimental: Epac had no effect on CREB phosphorylation.
as §1

NIH 3T3 cells [2] = assay: Luciferase expression from control non-circadian promoter in NIH 3T3 cells; format: cell-based, mouse
adenylyl cyclase = conditions: irreversibly binds the Gsα site; cited from earlier work

CC(C)Cn1c(=O)n(C)c(=O)c2[nH]cnc21 [IBMX]
effect on circadian period (NIH 3T3 cells [1]): lengthened period in fibroblasts
effect of THFA combined with IBMX on circadian period (NIH 3T3 cells [1]; THFA 1 mM plus IBMX 300 uM): did not enhance the effect of THFA

COc1ccc2[nH]cc(CCNC(C)=O)c2c1 [Melatonin]
phase resetting effect on the circadian clock (circadian clock): approximately 30 minutes/day

C[C@H]1O[C@@H](n2cnc3c(N)ncnc32)C[C@@H]1O [2′,5′-dideoxyadenosine, 2′,5′-Dideoxyadenosine]
effect on circadian period (organotypic SCN slices): Reversible period lengthening; also recorded: Period was lengthened
solubility (Water solubility; water, read-out: water soluble up to): ≥ 125 mM

[2H]O[2H] [D2O]
lengthening of period (circadian period): approximately 5%

CCCCCCOC(=O)[C@]1(O)C[C@@H]2O[C@@]1(C)n1c3ccccc3c3c4c(c5c6ccccc6n2c5c31)C(=O)NC4 [KT5720]
effect on circadian amplitude / gene expression (organotypic SCN slices): no significant effect
effect on circadian period (organotypic SCN slices): no significant effect

9-(Tetrahydro-2′-furyl)adenine [THFA]
saturating concentration of period lengthening (one-site inhibition model) (organotypic SCN slices; SCN slices): around 2 mM
circadian period under combined AC and JNK inhibition (organotypic SCN slices; THFA together with JNK inhibition, SCN and fibroblast clockwork): around 36 hours
period after removal of the drug (organotypic SCN slices; in vitro, after chronic incubation with THFA): approx. 24 hours
circadian period (organotypic SCN slices; mPer1::luc and mPER2-LUC SCN slices, dose-dependent increase from ca. 24): ~31 h
effect on circadian period (organotypic SCN slices): reversible increase of circadian period; also recorded: Extended circadian period; also recorded: Reversible period lengthening; also recorded: period effect; also recorded: rapidly reversible upon drug washout; also recorded: increased period in individual neurons
effect on circadian period (Clock mutant SCN): prolongs circadian period; also recorded: additive to that of the Clock mutation
probable maximum period increase (NIH 3T3 cells [1]; 1.2 mM THFA): approximately 9 hours
circadian period (NIH 3T3 cells [1]; 1.2 mM THFA, untreated about 21 hours): about 30 hours
effect on circadian period (NIH 3T3 cells [1]): Dose-dependent saturable period lengthening
circadian period (NIH 3T3 cells [1]; fibroblasts transfected with mBmal::luc reporter, lengthening from ca. 21): ~31 h
effect on circadian period (peripheral tissues; 2 mM THFA, all peripheral tissues tested): lengthens period; also recorded: dramatic increase in circadian period; also recorded: increases period in all tissues tested
basal cAMP levels (cAMP levels; THFA): maintains basal levels; also recorded: without affecting its nadir; also recorded: did not alter basal levels of cAMP
peak cAMP levels (cAMP levels; THFA): suppresses peak levels; also recorded: reduces the detectable, endogenous, biphasic rise in cAMP; also recorded: attenuated peak levels
free-running circadian period (SCN): lengthens circadian period; also recorded: lengthening of free-running period; also recorded: significantly (p<0:01, t-test) lengthened
water solubility (Water solubility): water-soluble; also recorded: most readily water soluble
toxicity (intact human neutrophils): non-toxic

COC1C2OP(O)(=S)OCC2OC1n1c(Sc2ccc(Cl)cc2)nc2c(N)ncnc21 (stereo not drawn) [Sp-8-CPT-2′-O-Me-cAMPS]
rescue of circadian gene expression in MDL-treated SCN slices (organotypic SCN slices): dramatically restored circadian output
rescue of circadian gene expression in MDL-treated SCN slices (organotypic SCN slices; listed as Epac agonist): can be rescued; also recorded: acute activation and synchronisation of cellular circadian gene expression; also recorded: significantly increased luciferase activity; also recorded: transiently activated and re-synchronised circadian gene expression
effect on circadian amplitude / gene expression (organotypic SCN slices): no significant effect
effect on circadian period (organotypic SCN slices): no significant effect
CREB phosphorylation (pCREB) (JNK phosphorylation; listed as Epac): no effect
CREB phosphorylation (pCREB) (JNK phosphorylation; listed as Epac agonist): not pCREB
JNK phosphorylation (pJNK) (JNK phosphorylation; listed as Epac): significant increase in JNK activation
JNK phosphorylation (pJNK) (JNK phosphorylation; listed as Epac agonist): reverses the decline in JNK phosphorylation; also recorded: increased pJNK

Cl.c1ccc(C2CCCC2NC2=NCCCCCCCCCCC2)cc1 (stereo not drawn) [MDL-12,330A]
synchrony of SCN neurons (CCD imaging) (organotypic SCN slices): desynchronisation
synchrony of SCN neurons (CCD imaging) (organotypic SCN slices; listed as MDL): became desynchronised
effect on circadian amplitude / gene expression (organotypic SCN slices): reversible suppression of circadian protein expression; also recorded: reversible, dose-dependent dampening of circadian gene expression; also recorded: loss of circadian amplitude; also recorded: dampens transcriptional amplitude
effect on circadian period (organotypic SCN slices): not affected
effect on circadian amplitude / gene expression (organotypic SCN slices; listed as MDL): rapid, dose-dependent dampening of circadian cycling; also recorded: lost circadian amplitude
effect on circadian gene expression / output (NIH 3T3 cells [1]): dose dependent suppression of circadian gene expression
effect on circadian gene expression / output (NIH 3T3 cells [1]; listed as MDL): Reversible, dose-dependent suppression of circadian output
effect on circadian output (peripheral tissues; organotypic kidney slices from mPER-2-LUC mice): Reversible, dose-dependent suppression of circadian output
cAMP levels (cAMP levels): loss of measurable cAMP
cAMP levels (cAMP levels; listed as MDL): suppressed cAMP levels to below the sensitivity of detection
JNK phosphorylation (pJNK) (JNK phosphorylation): decline in JNK phosphorylation
luciferase expression from control, non-circadian promoter (NIH 3T3 cells [2]): no effect on luciferase expression
IC50 (adenylyl cyclase): 250 µM
